According to US20220341943A1, “XBP1 ISOFORM MULTIPLEX ASSAY” (Randox Laboratories Ltd, priority 2019, published 2022):

Columns and labels:
Type in all cases: cell-based
[1] = test system: XBP1 splicing, MDA-MB-231 cells; assay: XBP1 biochip quantification of XBP1s and XBP1u in MDA-MB-231 lysates; conditions: for XBP1u levels: Paclitaxel, MKC-8866 and/or 4μ8C treatment; for XBP1s quantified by XBP1 biochip: 4μ8C 32 μM (p=0.035) or MKC-8866 20 μM (p=0.033); for Paclitaxel induced increase in XBP1s under IRE1α RNase inhibition: Paclitaxel 10 nM 48 h plus inhibitor, p<0.01; for XBP1u protein levels during IRE1α inhibition: XBP1 biochip, p=0.71
Method: (§1) Biochip-based determination of XBP1s and XBP1u. XBP1s and XBP1u levels and raw signal were quantified using the Evidence Investigator analyser (EV3602, Randox Laboratories Ltd., UK). Signals from defined discrete test regions were detected using digital imaging technology. The biochips were provided in wells in a carrier in a 3×3 format (9 reaction wells per carrier). A carrier handling tray supplied with the system accommodated 6 carriers. The total assay protocol was performed according to manufacturer's instructions. Briefly, RIPA lysed samples were diluted to 100 μL in RIPA buffer followed by dilution to 200 μL in XBP1 assay buffer and mixed well with gentle pipetting. 200 μL of XBP1 assay diluent was then applied to the surface of the biochip followed by 200 μL diluted sample or 100 μL calibrator/control per well. Following a 60-minute incubation at 37° C., 370 RPM in a thermoshaker (Randox Laboratories Ltd., Crumlin, UK) liquid contents were removed with a sharp flick and washed in a 2× quick, 4×2 min wash steps. 300 μL of HRP conjugated pan-XBP1 detector was applied to each well and another 60 min incubation at 37° C., 370 RPM in a thermoshaker was performed. Following another wash as above 250 μL of a 1:1 ratio of EV841 luminol and peroxide was applied to the surface of each biochip in a carrier and incubated away from direct light for 2 min. Carriers were then submitted to the Evidence Investigator, light emitted from each DTR detected by the CCD camera and signal quantified by the instrument software. Final values in pg/mg were obtained by dividing reported value (in pg) by total protein loaded per well, as determined by bicinchoninic acid (BCA) assay. Calibration curves, inferred values and goodness of fit were independently confirmed using R package nplr (0.1-7, Frederic Commo, https://cran.r-project.org/web/packages/nplr/index.html).
(§2) Cell culture and treatments MCF10A (ATCC) cells were maintained in DMEM/F-12 (Sigma-Aldrich, St. Louis, USA) supplemented with 5% horse serum (Sigma-Aldrich, St. Louis, USA), 20 ng/mL epidermal growth factor (PeproTech, London, UK), 0.5 μg/mL Hydrocortisone (Sigma-Aldrich, St. Louis, USA), 100 ng/mL Cholera toxin (Sigma-Aldrich, St. Louis, USA), 10 μg/mL insulin (Sigma-Aldrich, St. Louis, USA), 50 U/mL^1 penicillin, and 50 μg/mL streptomycin (St. Sigma-Aldrich, St. Louis, USA). MCF7 cells (ECACC) were cultured in DMEM high glucose (Sigma-Aldrich, St. Louis, USA) supplemented with 10% FBS, 0.01 mg/mL Insulin (Sigma-Aldrich, St. Louis, USA), and 2 mM L-glutamine. MDA-MB-231 cells were cultured in DMEM high glucose (Sigma-Aldrich, St. Louis, USA) supplemented with 10% FBS, 50 U/mL^1 penicillin, 50 μg/mL streptomycin, and 2 mM L-glutamine. U937 and THP-1 (ATCC, Manassas, USA) cells were cultured in RPMI-1640 medium (Sigma-Aldrich, St. Louis, USA) supplemented with 10% foetal bovine serum (FBS) (Sigma-Aldrich, St. Louis, USA), 50 U/mL penicillin, 50 μgml^−1 streptomycin (Sigma-Aldrich, St. Louis, USA), and 2 mM L-glutamine (Sigma-Aldrich, St. Louis, USA). All cells were cultured at 37° C., 5% CO2 in a humidified incubator and adherent cells seeded at an appropriate density 24 h prior to treatment. U937 cells were seeded at 5×10^5 cells/mL and treated immediately while THP-1 cells were seeded at 1×10^6 cells/mL and treated after 2 hours.
(§3) Sample preparation Cells were washed once in ice cold phosphate buffered saline (PBS) and then lysed in either RIPA buffer (Sigma-Aldrich, St. Louis, USAUSA) with RocheSTOP protease inhibitors (Roche, Basel, Switzerland) for protein analysis or directly lysed in TriReagent (Sigma-Aldrich, St. Louis, USAUSA) as per manufactures instructions for RNA analysis.

[2] = test system: NLRP3 mediated IL-1β release, THP-1 cells; assay: Immunoblot of IL-1β in conditioned media of THP-1 cells; conditions: LPS and nigericin activated
XBP1s, MCF7 cells = assay: Immunoblot of XBP1 isoforms in MCF7 cells; conditions: 4μ8C 32 μM or MKC-8866 20 μM, 48 h
Method: as §2, with “U937 cells were seeded at 5×10^5 cells/mL and treated immediately while THP-1 cells were seeded at 1×10^6 cells/mL and treated after 2 hours.” left out

[3] = test system: XBP1 splicing, THP-1 cells; assay: XBP1 biochip and RT-PCR assessment of THP-1 cells after NLRP3 inflammasome activation; conditions: for XBP1 splicing upon inflammasome activation: LPS 1 μg/ml 4 h followed by nigericin 10 μM 45 min (used together)
Method: as §1
Cell culture and treatments MCF10A (ATCC) cells were maintained in DMEM/F-12 (Sigma-Aldrich, St. Louis, USA) supplemented with 5% horse serum (Sigma-Aldrich, St. Louis, USA), 20 ng/mL epidermal growth factor (PeproTech, London, UK), 0.5 μg/mL Hydrocortisone (Sigma-Aldrich, St. Louis, USA), 100 ng/mL Cholera toxin (Sigma-Aldrich, St. Louis, USA), 10 μg/mL insulin (Sigma-Aldrich, St. Louis, USA), 50 U/mL^1 penicillin, and 50 μg/mL streptomycin (St. Sigma-Aldrich, St. Louis, USA). MCF7 cells (ECACC) were cultured in DMEM high glucose (Sigma-Aldrich, St. Louis, USA) supplemented with 10% FBS, 0.01 mg/mL Insulin (Sigma-Aldrich, St. Louis, USA), and 2 mM L-glutamine. MDA-MB-231 cells were cultured in DMEM high glucose (Sigma-Aldrich, St. Louis, USA) supplemented with 10% FBS, 50 U/mL^1 penicillin, 50 μg/mL streptomycin, and 2 mM L-glutamine. […]

XBP1s, MDA-MB-231 cells = assay: Immunoblot of XBP1 isoforms in MDA-MB-231 cells; conditions: for XBP1s (immunoblot) under IRE1α RNase inhibition: 4μ8C 32 μM or MKC-8866 20 μM, 48 h; for XBP1s translation (immunoblot): Tg 48 h, Tm 1 μg/ml 16 h, BFA 0.5 μg/ml 16 h, DTT 4 mM 2 h
Method: as §2, §3
Immunoblotting Protein lysates were mixed with 5× Laemmli Buffer (0.3125 M Tris HCl (pH 6.8), 10% SDS, 50% glycerol, 25% 2-mercaptoethanol, 0.02% bromophenol blue) in a 1:4 ratio and boiled at 95° C. for 5 min. Samples were separated on an SDS polyacrylamide gel, transferred onto nitrocellulose membrane (GE Healthcare Life Sciences, Little Chalfont, UK) and blocked with 5% milk in Wash Buffer (Randox Laboratories Ltd., Crumlin, UK). Membranes were probed with commercial antibodies to spliced and unspliced XBP1 isoforms and Actin (Sigma-Aldrich, St. Louis, USA, 1:5000). Anti-rabbit (Jackson ImmunoResearch, Cambridge, UK) and anti-mouse (Jackson ImmunoResearch, Cambridge, UK; Sigma-Aldrich, St. Louis, USA) HRP-conjugated secondary antibodies were incubated for 45-60 min and the signal was visualized using western blotting luminol reagent (Thermofisher, Waltham, USA; Perkin-Elmer, Waltham, USA).

[4] = test system: XBP1 splicing, MCF7 cells; assay: XBP1 biochip quantification of XBP1s and XBP1u in MCF7 lysates; conditions: 48 h; for XBP1s quantified by XBP1 biochip: 4μ8C 32 μM (p=0.004) or MKC-8866 20 μM (p=0.008)
Method: as §1, with “https://cran.r-project.org/web/packages/nplr/index.html). […]” for “https://cran.r-project.org/web/packages/nplr/index.html).”

CC(=O)O[C@H]1C(=O)[C@@]2(C)[C@H]([C@H](OC(=O)c3ccccc3)[C@]3(O)C[C@H](OC(=O)[C@H](O)[C@@H](NC(=O)c4ccccc4)c4ccccc4)C(C)=C1C3(C)C)[C@]1(OC(C)=O)CO[C@@H]1C[C@@H]2O [Paclitaxel]
XBP1s expression ([1]; MDA-MB-231, Paclitaxel 10 nM, 48 h, from 66.9±16.2 without Paclitaxel, p=0.036): 125.0 ± 14.1 µg/mg | XBP1u levels ([1]; MDA-MB-231, 48 h): no significant change

COc1cc2c(C)c(CC(=O)N3CCOCC3)c(=O)oc2c(C=O)c1O [MKC-8866]
IL-1β release [2]: ablates | XBP1s (immunoblot) under IRE1α RNase inhibition (XBP1s, MCF7 cells): reduction | XBP1s quantified by XBP1 biochip ([1]; MDA-MB-231, 48 h): significant reductions | Paclitaxel induced increase in XBP1s under IRE1α RNase inhibition ([1]; MDA-MB-231): completely ablated | XBP1u levels ([1]; MDA-MB-231, 48 h): no significant change | XBP1u protein levels during IRE1α inhibition ([1]; MDA-MB-231): largely unchanged | XBP1s expression upon MKC-8866 mediated inhibition (XBP1 biochip) ([3]; LPS and nigericin activated, p=0.048): significant changes | XBP1u levels (XBP1 biochip) ([3]; mean=46.2 μg/mg over treatments, one-way ANOVA p=0.408): largely unchanged | XBP1s (immunoblot) under IRE1α RNase inhibition (XBP1s, MDA-MB-231 cells): reduction | XBP1s quantified by XBP1 biochip [4]: significant reductions

O[C@H](CS)[C@H](O)CS (racemic) [Dithiothreitol]
XBP1s translation (immunoblot) (XBP1s, MDA-MB-231 cells): upregulation

CO[C@@H]1C[C@@H](C[C@H]2CC[C@H](C)[C@H]([C@@H](C)C(=O)O)O2)O[C@]2(O[C@](C)([C@H]3CC[C@@](C)([C@@H]4O[C@@H]([C@H]5O[C@@](O)(CO)[C@H](C)C[C@@H]5C)C[C@@H]4C)O3)C[C@H]2C)[C@@H]1C [nigericin, Nigericin]
XBP1 splicing upon inflammasome activation [3]: increase

Cc1cc(=O)oc2c(C=O)c(O)ccc12 [4μ8C]
XBP1s (immunoblot) under IRE1α RNase inhibition (XBP1s, MCF7 cells): reduction | relative potency of inhibition of XBP1s (XBP1 biochip) ([1]; MCF7 and MDA-MB-231, 4μ8C 32 μM versus MKC-8866 20 μM): more potent than MKC | XBP1s quantified by XBP1 biochip ([1]; MDA-MB-231, 48 h): significant reductions | Paclitaxel induced increase in XBP1s under IRE1α RNase inhibition ([1]; MDA-MB-231): completely ablated | XBP1u levels ([1]; MDA-MB-231, 48 h): no significant change | XBP1u protein levels during IRE1α inhibition ([1]; MDA-MB-231): largely unchanged | XBP1s (immunoblot) under IRE1α RNase inhibition (XBP1s, MDA-MB-231 cells): reduction | XBP1s quantified by XBP1 biochip [4]: significant reductions | XBP1u protein expression level (average) ([4]; 4μ8C 32 μM, significant upregulation, p=0.019): 81.1 µg/mg

C/C=C(/C)C(=O)O[C@H]1C(C)=C2[C@H]([C@@H]1OC(=O)CCCCCCC)[C@@](C)(OC(C)=O)C[C@H](OC(=O)CCC)[C@@]1(O)[C@H]2OC(=O)[C@@]1(C)O [Thapsigargin]
XBP1s translation (immunoblot) (XBP1s, MDA-MB-231 cells): upregulation

Lipopolysaccharide [LPS]
XBP1 splicing upon inflammasome activation [3]: increase

C[C@H]1CCC/C=C/[C@@H]2C[C@H](O)C[C@H]2[C@H](O)/C=C/C(=O)O1 [Brefeldin A]
XBP1s translation (immunoblot) (XBP1s, MDA-MB-231 cells): upregulation

Tunicamycin
XBP1s translation (immunoblot) (XBP1s, MDA-MB-231 cells): upregulation
